Experimental data: the supplement of paper PMC10307832

Legend:
Assay in all cases: relative viability (nuclei count vs DMSO), 5 days (fraction); higher = more cells survive
[1] = compound: C/C(=N\NC(=S)N1CCC1)/C2=CC=CC=N2 + COc1cc2c(Oc3ccc(NC(=O)C4(C(=O)Nc5ccc(F)cc5)CC4)cc3F)ccnc2cc1OCCCN1CCOCC1 [Foretinib] (partner 0.25 µM)
Summary of the method: (§1)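 One day after seeding in 1536-well plates, lung cancer cell lines were dosed by pin tool. Dosing was either single-drug or a fixed anchor-drug dose plus five library-drug doses (not always all listed) in √10 steps. After 5 days, nuclei were stained in one fix-and-stain step and counted on 4× images, and relative viability is the nuclei count of treated wells over that of vehicle wells, given as the median of duplicate plates.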

[2] = compound: C/C(=N\NC(=S)N1CCC1)/C2=CC=CC=N2 + CCNC(=O)c1noc(-c2cc(C(C)C)c(O)cc2O)c1-c1ccc(CN2CCOCC2)cc1 [Luminespib] (partner 0.01 µM)
Summary of the method: as §1

[3] = compound: C/C(=N\NC(=S)N1CCC1)/C2=CC=CC=N2 + Cc1cc(Nc2cc(N3CCN(C)CC3)nc(Sc3ccc(NC(=O)C4CC4)cc3)n2)n[nH]1 [Tozasertib] (partner 0.1 µM)
Summary of the method: as §1

[4] = compound: C/C(=N\NC(=S)N1CCC1)/C2=CC=CC=N2 + NC(=O)Nc1cc(-c2cccc(F)c2)sc1C(=O)N[C@H]1CCCNC1 [AZD7762] (partner 0.2 µM)
Summary of the method: as §1

Cell Line | relative viability ([1]; first compound 0.05 µM) | relative viability ([1]; first compound 0.1581 µM) | relative viability ([1]; first compound 0.5 µM) | relative viability ([1]; first compound 1.581 µM) | relative viability ([1]; first compound 5 µM) | relative viability ([2]; first compound 0.05 µM) | relative viability ([2]; first compound 0.1581 µM) | relative viability ([2]; first compound 0.5 µM) | relative viability ([2]; first compound 1.581 µM) | relative viability ([2]; first compound 5 µM) | relative viability ([3]; first compound 0.05 µM) | relative viability ([3]; first compound 0.1581 µM) | relative viability ([3]; first compound 0.5 µM) | relative viability ([3]; first compound 1.581 µM) | relative viability ([3]; first compound 5 µM) | relative viability ([4]; first compound 0.05 µM) | relative viability ([4]; first compound 0.1581 µM) | relative viability ([4]; first compound 0.5 µM) | relative viability ([4]; first compound 1.581 µM) | relative viability ([4]; first compound 5 µM)
A549 | 0.0523 | 0.0338 | 0.0289 | 0.0404 | 0.0168 |  |  |  |  |  |  |  |  |  |  |  |  |  |  | 
COR-L23 | 0.147 | 0.132 | 0.14 | 0.0938 | 0.0923 | 0.102 | 0.0984 | 0.0928 | 0.0829 | 0.0974 | 0.101 | 0.0974 | 0.0768 | 0.0695 | 0.101 |  |  |  |  | 
COR-L 105 | 0.33 | 0.312 | 0.382 | 0.233 | 0.268 | 0.227 | 0.247 | 0.259 | 0.167 | 0.265 | 0.205 | 0.245 | 0.229 | 0.231 | 0.22 |  |  |  |  | 
Calu-6 | 0.0699 | 0.0625 | 0.0749 | 0.0997 | 0.0865 |  |  |  |  |  |  |  |  |  |  |  |  |  |  | 
EBC-1 | 0.0973 | 0.107 | 0.131 | 0.0785 | 0.0979 |  |  |  |  |  |  |  |  |  |  |  |  |  |  | 
HCC-44 |  |  |  |  |  | 0.326 | 0.307 | 0.283 | 0.32 | 0.242 | 0.359 | 0.309 | 0.257 | 0.246 | 0.231 | 0.702 | 0.573 | 0.488 | 0.445 | 0.47
HCC-78 | 0.488 | 0.451 | 0.367 | 0.237 | 0.235 |  |  |  |  |  | 0.332 | 0.205 | 0.248 | 0.206 | 0.202 | 0.327 | 0.332 | 0.226 | 0.169 | 0.174
HCC-366 | 0.127 | 0.346 | 0.0579 | 0.0562 | 0.0285 |  |  |  |  |  | 0.0183 | 0.0481 | 0.0208 | 0.0215 | 0.0265 | 0.0319 | 0.0257 | 0.0217 | 0.0308 | 0.0241
IA-LM | 0.0694 | 0.0465 | 0.0654 | 0.0441 | 0.0339 |  |  |  |  |  |  |  |  |  |  |  |  |  |  | 
NCI-H520 | 0.153 | 0.162 | 0.159 | 0.17 | 0.184 | 0.194 | 0.21 | 0.199 | 0.21 | 0.235 | 0.191 | 0.241 | 0.197 | 0.175 | 0.269 |  |  |  |  | 
NCI-H661 | 0.294 | 0.307 | 0.244 | 0.264 | 0.24 | 0.246 | 0.221 | 0.212 | 0.202 | 0.219 | 0.239 | 0.261 | 0.23 | 0.235 | 0.248 |  |  |  |  | 
NCI-H1299 | 0.107 | 0.133 | 0.191 | 0.187 | 0.117 |  |  |  |  |  |  |  |  |  |  |  |  |  |  | 
NCI-H1563 | 0.543 | 0.63 | 0.576 | 0.529 | 0.581 | 0.464 | 0.435 | 0.472 | 0.429 | 0.467 |  |  |  |  |  |  |  |  |  | 
NCI-H1648 |  |  |  |  |  |  |  |  |  |  | 0.275 | 0.216 | 0.229 | 0.309 | 0.233 | 0.337 | 0.305 | 0.269 | 0.288 | 0.297
NCI-H1650 | 0.185 | 0.225 | 0.175 | 0.205 | 0.215 | 0.182 | 0.185 | 0.2 | 0.168 | 0.174 | 0.121 | 0.187 | 0.126 | 0.16 | 0.194 |  |  |  |  | 
NCI-H1703 | 0.163 | 0.142 | 0.163 | 0.206 | 0.246 |  |  |  |  |  |  |  |  |  |  | 0.0509 | 0.0548 | 0.0472 | 0.114 | 0.102
NCI-H1792 |  |  |  |  |  | 0.23 | 0.187 | 0.176 | 0.169 | 0.157 |  |  |  |  |  | 0.107 | 0.0965 | 0.0559 | 0.0274 | 0.0333
NCI-H2009 | 0.143 | 0.183 | 0.186 | 0.213 | 0.184 | 0.128 | 0.146 | 0.15 | 0.186 | 0.127 | 0.103 | 0.148 | 0.143 | 0.183 | 0.149 |  |  |  |  | 
NCI-H2023 | 0.0821 | 0.0789 | 0.0763 | 0.0636 | 0.077 | 0.067 | 0.0631 | 0.0621 | 0.0569 | 0.0694 | 0.063 | 0.0672 | 0.0602 | 0.0657 | 0.0603 |  |  |  |  | 
NCI-H2228 | 0.227 | 0.129 | 0.145 |  | 0.113 | 0.168 | 0.119 | 0.129 |  | 0.158 | 0.0977 | 0.114 | 0.126 |  | 0.116 |  |  |  |  | 
SK-LU-1 | 0.214 | 0.19 | 0.221 | 0.149 | 0.172 | 0.154 | 0.133 | 0.176 | 0.156 | 0.178 | 0.141 | 0.124 | 0.174 | 0.0952 | 0.136 |  |  |  |  | 
SK-MES-1 | 0.201 | 0.257 | 0.223 | 0.166 | 0.238 | 0.169 | 0.155 | 0.175 | 0.152 | 0.189 | 0.22 | 0.188 | 0.183 | 0.158 | 0.147 |  |  |  |  | 
SW 1573 | 0.146 | 0.155 | 0.128 | 0.142 | 0.0856 | 0.0763 | 0.116 | 0.104 | 0.0921 | 0.0745 | 0.0614 | 0.0887 | 0.0999 | 0.0752 | 0.0626 |  |  |  |  | 
UMC-11 | 0.249 | 0.212 | 0.223 | 0.183 | 0.185 | 0.207 | 0.194 | 0.199 | 0.184 | 0.176 | 0.196 | 0.177 | 0.196 | 0.192 | 0.185 |  |  |  |  | 
